The source of these data is ChEMBL document CHEMBL5441456, “ASAP - SARS-CoV-2 nsp3 macrodomain dose response” (2024).

pIC50: −log10 of the molar value. Values joined by “and” are separate entries in the source; they are usually repeats but may differ in a detail not shown here. Equal values may be shown once.

This experiment has as its target Replicase polyprotein 1ab (Severe acute respiratory syndrome coronavirus 2, UniProt P0DTD1). Kind of experiment: Functional biochemical assay to identify treatments for viral infectious disease that targets SARS-COV-2 nsp3 macrodomain, whereby the mechanism of action displaces an ADP-Ribose modified peptide from the binding site. Utilizing a time-resolved fluorescence method to measure binding by reading the emitted fluorescence intensity in two wavelengths.
Turning to `c1nc(-c2ccc3c(c2)OCO3)c2cc[nH]c2n1`, the pIC50 was under 4.00. In turn, `CCOC(=O)C1=C(Nc2cc(C)cc(C)c2)OCC1=O` had a pIC50 of under 4.00. As for `Cc1ccc2c(NC(=O)c3ccc(NC(=O)NC4CC4)cc3)c(C(=O)O)sc2n1`, the pIC50 was under 4.00. As for `COc1ccc([C@@H]2CCN(c3ncnc4[nH]ccc34)C2)cc1`, the pIC50 is under 4.00. With `O=C(O)C[C@@H](NC(=O)c1ncnc2[nH]ccc12)c1ccc(NCC2C[C@@H](O)[C@@H](O)C2)cc1` (stereo partly drawn), the pIC50 was 4.60 and 4.56. For `Cc1[nH]nc2ncc(C(=O)N[C@@H](c3ccc4c(c3)OCCO4)C(C)C)cc12` the value was under 4.00; for `Cc1nnc(N[C@@H](c2ccc3c(c2)OCCO3)C(C)C)c2ccccc12`, under 4.00. The figure for `CC(C)[C@@H](Nc1ncnc2c1cnn2C)c1ccc2c(c1)OCCO2` is under 4.00. The compound `Cc1[nH]c2ncnc(NC(=O)c3ccncc3)c2c1C` showed a pIC50 of under 4.00. On to `Cc1[nH]c2ncnc(NC(=O)c3cncnc3)c2c1C`, for which the pIC50 was under 4.00. The figure for `COC(=O)C[C@@H](NC(=O)c1ncnc2[nH]ccc12)c1ccc(Br)cc1` is under 4.00; for `Cc1ncc(C(=O)Nc2ncnc3[nH]c(C)c(C)c23)cn1` it is under 4.00.

For `Cc1[nH]c2ncnc(NC(=O)c3ccc(C(F)(F)F)nc3)c2c1C`, the negative-log IC50 (pIC50) is under 4.00. With `CC(C)[C@@H](Nc1ncnc2c1ccn2C)c1ccc2c(c1)OCCO2`, the pIC50 is under 4.00. For `COC[C@@H]1C[C@@H]1CNc1ccc([C@@H](CC(=O)O)NC(=O)c2ncnc3[nH]ccc23)cc1`, the pIC50 was 4.35 and 4.36. For `Cc1[nH]c2ncnc(NC(=O)[C@@H]3Cc4ccccc4CO3)c2c1C` the value was under 4.00; for `CNS(=O)(=O)C[C@@H](NC(=O)c1ncnc2[nH]ccc12)c1ccc(Br)cc1`, under 4.00; for `CC(C)[C@@H](NC(=O)c1cnn(-c2ccccc2)n1)c1ccc2c(c1)OCCO2`, under 4.00. Compound `CC(C)[C@@H](Nc1nc(C(F)F)nc2ccccc12)c1ccc2c(c1)OCCO2` gave a pIC50 of under 4.00. For `Cc1[nH]c2ncnc(NC(=O)[C@@H](CC(F)F)C3CCC3)c2c1C` the value was 5.09 and 5.08; for `c1nc(NCc2ccc3c(c2)OCCO3)c2cc[nH]c2n1`, 4.10 and 4.03; for `Cn1c(C(=O)O)c(NC(=O)c2ccc(NC(=O)NC3CC3)cc2)c2ccccc21`, under 4.00. Take `O=C(Nc1ccc(C(=O)Nc2c(C(=O)O)sc3ncccc23)cc1)NC1CC1`: the pIC50 was under 4.00. For `C[C@@H]1Oc2ccc(Nc3ncnc4[nH]ccc34)cc2NC1=O` the value was under 4.00.

`Cc1[nH]c2ncnc(NC(=O)c3cncc(Cl)n3)c2c1C` showed a pIC50 of under 4.00.

In the case of `O=C(Nc1cccc2c(C(=O)N[C@@H](CO)c3ccc4c(c3)OCCO4)c[nH]c12)NC1CC1`, the pIC50 was under 4.00. With `CC(C)[C@@H](NCc1ncc[nH]1)c1ccc2c(c1)OCCO2`, the pIC50 was under 4.00. As to `CC(C)[C@@H](NCc1ccc(-n2cccn2)cc1)c1ccc2c(c1)OCCO2`, the pIC50 was under 4.00.

`O=C(Nc1ccc(C(=O)Nc2c(C(=O)O)[nH]c3ccccc23)cc1)NC1CC1` had a pIC50 of under 4.00. The figure for `CC(C)[C@@H](Nc1ncnc2ncccc12)c1ccc2c(c1)OCCO2` is under 4.00; for `CC(C)[C@@H](Nc1ncnc2ccccc12)c1ccc2c(c1)OCCO2` it is 4.23 and 4.22.

Consider `Cn1ncc2c(N[C@@H](c3ccc4c(c3)OCCO4)C3CC3)ncnc21`, for which the pIC50 was under 4.00. The compound `c1nc(N2CCC[C@@H](Nc3ccc4c(c3)OCCO4)C2)c2cc[nH]c2n1` had a pIC50 of under 4.00. Take `CCc1coc(Nc2ccc([C@@H](CC(=O)O)NC(=O)c3ncnc4[nH]ccc34)cc2)n1`: the negative-log IC50 (pIC50) is 4.86 and 4.81. In the case of `CC(C)[C@@H](NC(=O)c1ccccn1)c1ccc2c(c1)OCCO2`, the pIC50 is under 4.00. For `CC(C)[C@@H](NC(=O)c1ccnc(-n2ccnc2)c1)c1ccc2c(c1)OCCO2`, the pIC50 is under 4.00.

For the compound `CC(C)[C@@H](NCc1cccc2[nH]ccc12)c1ccc2c(c1)OCCO2`, the pIC50 is under 4.00. For `Cc1[nH]c2ncnc(C(=O)Nc3ccnc(Cl)c3)c2c1C`, the pIC50 is under 4.00.
